Measured values published in PMC10327353 (Breast Cancer Research : BCR, 2023).
Like-named read-outs stand apart in the source and are kept apart here.

Columns and labels:
[1] = target: T1, BCRP (Homo sapiens, UniProt Q9UNQ0); experiment: BCRP efflux ratio, bi-directional transport assay; format: in vitro ADME
T1 construct: endogenous in cells; host or cells: Caco-2

[2] = Caco-2 passive permeability; format: in vitro ADME; settings: human, Caco-2, pH 7.4; read-out: Caco-2 Papp (intrinsic passive permeability)
Description: Passive permeability (Papp) characterizes the rate across the cell membrane due to passive diffusion. A high permeability enables the rapid establishment of equilibrium among plasma, CSF, and brain compartments. Except for passive permeability, sufficient unbound drug concentration in the brain is governed by efflux transporters, including P-gp (MDR1, ABCB1) and BCRP, at BBB. Efflux ratio (ER) reflects the liability of a compound to be pumped out of the brain by BBB efflux transporters, which is indicated by the distribution disequilibrium between the plasma and the brain compartments.
Again, DZD1516 and DZ2678 permeability were evaluated in a bi-directional assay in Caco-2 cells at 5 μM. The efflux ratio of DZD1516 and DZ2678, with or without novobiocin (a selective BCRP inhibitor), determined whether DZD1516 or DZ2678 was transported via BCRP in Caco-2 cells. The apical-to-basolateral (A-B) and basolateral-to-apical (B-A) transport of DZD1516/DZ2678 in HBSS (25 mM HEPES, pH 7.4) with 0.1% BSA was measured across Caco-2 cell monolayers in the absence and presence of BCRP inhibitor, novobiocin (30 μM). […] Transport of 5 µM DZD1516/DZ2678 and control compound was determined by quantifying substrate concentration in the incubation medium of the donor compartment at the beginning of the incubation period and both donor and receiver compartments at the end of the incubation period. […]

[3] = tested on: CYP P450s; experiment: CYP P450 inhibition and induction; format: in vitro ADME; settings: in vitro
[4] = tested on: BT474C1-Luci Mono1 LM xenograft; experiment: LM (leptomeningeal metastasis) BT474C1-Luci Mono1 xenograft model; format: in vivo, nude mice
Experimental: The LM model was generated by implanting 10 µl of cell suspension containing 1 × 10^4 BT474C1-Luci Mono1 cells through cisterna magna into each mouse under anaesthesia following similar procedures as described in the literature (31). 17β- ESTRADIOL (90-day release 0.36 mg/pellet) were injected subcutaneously 24 hrs before cell inoculation. Under anaesthesia, mice were placed in the prone position with their neck draped over a cylinder. The head was immobilized with the thumb and mid-finger, with the index finger palpating the space between the occiput and C1. BT474c1-Luci Mono1 cell suspension at 10 µl containing 0.01 million cells were injected intracisternally. When the bioluminescent signal reached > 5 × 10^6 photon/s, animals were randomized for treatment. […]
In both BM and LM models, the day of randomization was defined as Day 0 and the treatment was started one day after randomization. The bioluminescence signals and body weight of the mice were measured once weekly. Relative bioluminescence intensity on a specific day was calculated by dividing the bioluminescence intensity on that day by the bioluminescence intensity on Day 0. The tumour growth inhibition (TGI) was calculated by formula: TGI (%) = (1-(relative bioluminescence intensity of treated group)/(relative bioluminescence intensity of control group)) x 100.Establishment of SC model

[5] = tested on: BT474C1-Luci Mono1 SC xenograft; experiment: SC (subcutaneous) BT474C1-Luci Mono1 xenograft model; format: in vivo, nude mice
Experimental: Tumor cell suspension at 5 × 10^6 were injected subcutaneously in a total volume of 0.2 ml (1:1 with ECM Gel) into each mouse. 17β-ESTRADIOL (90-day release, 0.36 mg/pellet) were implanted 24 hrs before cells were injected subcutaneously. Tumor nodules were measured in two dimensions with caliper and the tumor volume was calculated using the following formula: tumor volume = (length × width^2) × 0.5. Tumor-bearing mice were randomized into different treatment groups when the mean tumor volume reached around 150 mm^3.

[6] = Phase 1 study: plasma pharmacokinetics; format: in vivo, human; settings: for AUC(0-t): 250 mg
Experimental: Blood samples for PK analyses of DZD1516 and DZ2678 were collected on C0D1. Samples were obtained at pre-dose and at 0.5, 1, 1.5, 2, 2.5, 3, 4, 6, 8, 10, 24, 48, and 72 h after the dose, while for C1D15, samples were obtained at pre-dose and 0.5, 1, 1.5, 2, 2.5, 3, 4, 6, 8, and 10 h after the dose. CSF samples for PK analyses of DZD1516 and its metabolite DZ2678 were collected from patients with BM (C1D15) and LM (C1D15 and C3D1) at steady state (Additional file 1). Plasma and CSF samples were analyzed by LabCorp Madison laboratory (Madison, WI, USA) and LabCorp Shanghai laboratory (Shanghai, China) using a validated LC/MS/MS bioanalytical method to determine DZD1516 and DZ2678 concentrations. Non-compartmental PK analysis was performed using Phoenix WinNonlin (Certara USA Inc., version 8.3.3.33).
Blood samples for PK analyses of DZD1516 and DZ2678 were collected on C0D1 and C1D15.
Plasma concentrations of analytes evaluated in this study were determined using validated bioanalytical methods at Labcorp Madison lab (Madison, WI, USA) and Labcorp Shanghai lab (Shanghai, China). Concentrations of analytes in human plasma containing K2EDTA as an anticoagulant was determined using plasma precipitation, followed by analysis using high-performance LC-MS/MS detection. Two bioanalytical methods used […] of plasma and were linear over the range of 5.00 (the lower limit of quantification) to 5000 ng/mL for DZD1516 and 2.00 (the lower limit of quantification) to 2000 ng/mL for DZ2678 (Labcorp Shanghai lab), 1.96 (the lower limit of quantification) to 1960 ng/mL for DZ2678 (Labcorp Madison lab). The analysis runs for all analytes were determined to have a high degree of reproducibility and acceptably low inter-run carryover, which was considered acceptable for PK quantification. The plasma samples were stored at –70°C until analysis. PK analyses were performed by using Phoenix WinNonLin (Certara USA, Inc., Version 8.1 or higher).

T1 sequence (Q9UNQ0 whole entry): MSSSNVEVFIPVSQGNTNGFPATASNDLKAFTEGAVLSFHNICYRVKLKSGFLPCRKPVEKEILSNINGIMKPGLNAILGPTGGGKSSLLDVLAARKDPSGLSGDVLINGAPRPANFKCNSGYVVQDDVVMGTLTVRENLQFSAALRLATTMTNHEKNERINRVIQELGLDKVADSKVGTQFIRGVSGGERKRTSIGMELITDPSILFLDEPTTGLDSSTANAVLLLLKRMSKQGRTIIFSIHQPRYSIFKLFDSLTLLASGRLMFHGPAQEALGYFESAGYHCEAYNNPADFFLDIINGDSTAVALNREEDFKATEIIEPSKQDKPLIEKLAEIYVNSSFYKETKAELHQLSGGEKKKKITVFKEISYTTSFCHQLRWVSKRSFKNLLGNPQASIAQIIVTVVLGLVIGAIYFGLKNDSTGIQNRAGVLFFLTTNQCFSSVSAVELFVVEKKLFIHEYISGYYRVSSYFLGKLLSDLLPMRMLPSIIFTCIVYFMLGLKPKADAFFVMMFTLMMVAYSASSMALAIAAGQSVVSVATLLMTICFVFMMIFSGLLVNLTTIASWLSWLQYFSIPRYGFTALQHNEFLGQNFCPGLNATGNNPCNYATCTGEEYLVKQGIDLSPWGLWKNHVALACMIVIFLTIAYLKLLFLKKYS

SMILES: COc1cc(O[C@H]2CCN(C)CC2(F)F)c2c(Nc3ccc(Oc4ccn5ncnc5c4)c(C)c3)ncnc2c1 [DZD1516]
- Efflux ratio BCRP @1 µM ([1]; 1 µM, listed as Cpd-5): 1.3
- efflux ratio at 120 min, 1 µM ([1]; human, Caco-2, pH 7.4, 1 µM): < 2
- Papp at 120 min, 5 μM [2]: 90 ×10⁻⁶ cm/s
- CYP P450s inhibitor and inducer [3]: not a CYP P450s inhibitor and inducer
- TGI ([4]; 100 mg/kg twice daily): 57%
- TGI ([4]; 150 mg/kg twice daily): 81%
- antitumor efficacy ([5]; 100 mg/kg or 150 mg/kg twice daily): tumor remission was achieved
- antitumor efficacy ([5]; monotherapy 50 mg/kg (data not shown)): tumor shrinkage or complete tumor remission
- Css,max, Geometric Mean [CV%] ([6]; Day 15, 250 mg BID DZD1516): 1410[44.64] ng/mL
- Css,min, Geometric Mean [CV%] ([6]; Day 15, 250 mg BID DZD1516): 442.8[50.12] ng/mL
- tss,max, Median (Min, Max) ([6]; Day 15, 250 mg BID DZD1516): 1.483(0.533,2.47) hr
- AUC(0-t) ([6]; human, plasma, oral, Day 1, 250 mg DZD1516, read-out: AUC0-10, Geometric Mean [CV%]): 6160 ng·h/mL
- AUC(0-t) ([6]; human, plasma, oral, Day 1, 250 mg DZD1516, read-out: AUC0-72, Geometric Mean [CV%]): 13200 ng·h/mL
- AUC(0-t) ([6]; human, plasma, oral, Day 15, 250 mg BID DZD1516, read-out: AUC0-10, Geometric Mean [CV%]): 7560 ng·h/mL
- Cmax ([6]; human, plasma, oral, Day 1, 250 mg DZD1516, read-out: Cmax, Geometric Mean [CV%]): 1330 ng/mL
- half-life ([6]; human, plasma, oral, Day 1, 250 mg DZD1516, read-out: t1/2, Mean (SD) (converted)): 19.8 h
- Tmax ([6]; human, plasma, oral, Day 1, 250 mg DZD1516, read-out: tmax, Median (Min, Max)): 2.85 h
- AUC ([6]; human, plasma, oral, Day 15, 250 mg BID DZD1516, read-out: AUCtau, Geometric Mean [CV%]): 8340 ng·h/mL
- half-life ([6]; human, plasma, oral, patients, read-out: half-life): 13.3 to 20.1 h
- Tmax ([6]; human, plasma, patients, single oral administration 50 to 300 mg, read-out: median tmax): 2.15 to 3.22 h
- accumulation ([6]; steady state, 15 days of twice daily dosing): approximately twofold
